Like-named read-outs stand apart in the source and are kept apart here.
Biological target: T1, 5-lipoxygenase (Mus musculus, UniProt P48999)
T1 construct: The supernatant is used as a 5-lipogenase enzyme solution; endogenous in cells
T1 sequence (P48999 1-674): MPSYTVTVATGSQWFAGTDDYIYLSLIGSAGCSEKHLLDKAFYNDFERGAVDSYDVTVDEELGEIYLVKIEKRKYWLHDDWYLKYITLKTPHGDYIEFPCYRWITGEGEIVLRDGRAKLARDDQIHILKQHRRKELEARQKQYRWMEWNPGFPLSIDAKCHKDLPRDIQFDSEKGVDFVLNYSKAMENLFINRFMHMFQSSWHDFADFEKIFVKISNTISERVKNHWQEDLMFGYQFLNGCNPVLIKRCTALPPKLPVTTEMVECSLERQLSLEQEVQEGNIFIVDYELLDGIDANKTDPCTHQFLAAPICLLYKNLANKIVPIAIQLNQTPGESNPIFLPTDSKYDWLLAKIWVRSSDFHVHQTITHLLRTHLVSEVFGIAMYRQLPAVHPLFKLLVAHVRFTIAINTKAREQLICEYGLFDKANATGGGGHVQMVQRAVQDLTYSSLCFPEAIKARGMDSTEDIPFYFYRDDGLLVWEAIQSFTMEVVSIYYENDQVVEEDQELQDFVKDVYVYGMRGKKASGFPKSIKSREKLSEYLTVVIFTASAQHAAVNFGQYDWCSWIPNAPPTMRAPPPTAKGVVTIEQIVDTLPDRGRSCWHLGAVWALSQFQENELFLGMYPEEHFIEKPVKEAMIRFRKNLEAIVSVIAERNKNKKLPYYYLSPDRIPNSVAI
Experiment: 5-Lipoxygenase-inhibiting Activity (decrease in 5-HETE and LTB4 formed from radiolabelled arachidonic acid, enzyme solution from mouse mastcytoma cells P-815)
Assay type: biochemical
Procedure: Mouse mastcytoma cells P-815 are diluted in a culture solution, containing 90% Eagle Basic Medium (manufactured by Gibco Laboratories) to 5×10^4 cells/ml. The diluted solution is cultivated with shaking in air at 37° C. for 48 hours. Then, the culture solution is cooled with ice and centrifuged to collect the cells. The cells are suspended in a phosphate buffer solution at pH 7.4 at a concentration of 2×10^7 cells/ml. The suspension is treated in a ultrasonic cell disintegrater and then centrifuged at 10,000 r.p.m. for 10 min. The supernatant is used as a 5-lipogenase enzyme solution. In test tubes are placed 20 μl of radiolabelled arachidonic acid ([…]), indomethacin (2×10^-8 mol) and an amide derivative to be tested, respectively. To each of the test tubes are added 0.45 ml of a phosphate buffer solution, 0.45 ml of the above-prepared suspension, 0.45 ml of the above-prepared enzyme solution and 0.1 ml of 8 mM CaCl2 (calcium chloride). The mixture is reacted at 37° C. for 5 min. After cooled with ice, 60 μl of 1N-HCl (hydrochloric acid is added to the reaction mixture, which is then extracted with 8 ml of ethyl acetate. The extract is concentrated, and the concentrate is developed by spotting on a silica gel thin layer plate (Merck 60F 254). Measurement of the inhibitory activity is made by collecting fractions corresponding to lipoxygenase products 5-HETE (5(s)-hydroxy-6,8,11,14-eicosatetraenic acid) and LTB4 (leucotriene B4) and determining the radioactivity by a liquid scintillation counter. The lipoxygenase inhibiting activity is determined by decrease in the amount of the above-mentioned 5-lipoxygenaseproducts. […] 50% inhibitory concentration or 30% inhibitory concentration as indicated in the table means the concentration of an amide derivative required for reducing the amount of the above-mentioned 5-lipoxygenase products (5-HETE and LTB4) to 50% or 30% of the amount when the amount of 5-HETE and LTB4 produced in the absenced of the amide derivative is 100%.

[1] = 5-HETE and LTB4 formation, mouse mastcytoma P-815 enzyme solution, 37° C., 5 min, pH 7.4, with indomethacin, read-out: 50% Inhibitory concentration IC50

IC50 [1] [µM]	SMILES	IC50 [µM]
0.01	COc1cc(/C=C/C=C/C(=O)NCCOC(c2ccccc2)c2ccccc2)cc(OC)c1O [Example 100, 2-[5-(3,5-dimethoxy-4-hydroxy)phenyl-2,4-pentadienoyl]aminoethyl benzhydryl ether]	
	COc1cc(/C=C/C=C/C(=O)N2CCN(CCOC(c3ccccc3)c3ccccc3)CC2)cc(OC)c1O [Example 98, N-[5-(3,5-dimethoxy-4-hydroxyphenyl)-2,4-pentadienoyl)-N'-(2-benzhydroxyethyl)piperazine]	0.009
0.04	COc1cc(/C=C/C=C/C(=O)NCCCCN2CCN(C(c3ccccc3)c3ccccc3)CC2)cc(OC)c1O [Example 97, N-benzhydryl-N'-[4-[5-(3,5-dimethoxy-4-hydroxy)phenyl-2,4-pentadienoyl]aminobutyl]]	
0.04	COc1cc(/C=C/C=C/C(=O)NCCCCN2CCN(C(c3ccccc3)c3ccc(Cl)cc3)CC2)ccc1O (centres unmarked) [Example 86]	
2	COc1cc(/C=C/C=C/C(=O)N2CCN(CCn3cnc4c3c(=O)n(C)c(=O)n4C)CC2)cc(OC)c1O [Example 114]	
0.06	O=C(/C=C/C=C/c1ccc(O)c(O)c1)NCCCN1CCN(C(c2ccccc2)c2ccc(Cl)cc2)CC1 (centres unmarked) [Example 45, N-(p-chlorobenzhydryl)-N'-[{5-(3,4-dihydroxyphenyl)-2,4-pentadienoyl}-aminopropyl]piperazine]	
0.08	O=C(/C=C/c1ccc(O)c(O)c1)NCCN1CCN(C(c2ccccc2)c2ccc(Cl)cc2)CC1 (centres unmarked) [Example 12, N-(p-chlorobenzhydryl)-N'-[2-{3-(3,4-dihydroxyphenyl)-2-propenoyl}aminoethyl]piperazine]	
4	COc1ccc(/C=C/C=C/C(=O)NCCCN2CCN(C(c3ccccc3)c3ccccc3)CC2)cc1OC [Example 47, N-[3-[5-(3,4-dimethoxyphenyl)-2,4-pentadienoyl]-aminopropyl]-N'-benzhydrylpiperazine]	
0.008	CC(OCCCN1CCN(C(=O)/C=C/C=C/c2ccc(O)c(O)c2)CC1)(c1ccccc1)c1ccc(Cl)cc1 (centres unmarked) [Example 108, N-[5-(3,4-dihydroxy)phenyl-2,4-pentadienoyl]-N'-[3-[1-phenyl-1-(p-chlorophenyl)ethoxy]propyl]piperazine]	
0.03	O=C(/C=C/c1ccc(O)c(O)c1)NCCOC(c1ccccc1)c1ccccc1 [Example 67, 2-[3-(3,4-dihydroxy)phenyl-2-propenoyl]aminoethyl benzhydryl ether]	
0.01	COc1cc(/C=C/C(=O)N2CCN(CCOC(C)(c3ccccc3)c3ccc(Cl)cc3)CC2)cc(OC)c1O (centres unmarked) [Example 105, N-[3-(3,5-dimethoxy-4-hydroxyphenyl)-2-propenoyl]-N'-[2-[1-phenyl-1-(p-chlorophenyl)ethoxy]ethyl]piperazine]	
0.5	COc1cc(/C=C/C(=O)NCCN2CCN(C(c3ccccc3)c3ccc(Cl)cc3)CC2)ccc1O (centres unmarked) [Example 1, N-(p-chlorobenzhydryl)-N'-[2-{3-(3-methoxy-4-hydroxyphenyl)-2-propenoyl}-aminoethyl]piperazine]	
0.2	COc1cc(/C=C/C(=O)NCCCCN2CCC(OC(c3ccccc3)c3ccccc3)CC2)ccc1O [Example 124, 1-[4-[3-(3-methoxy-4-hydroxyphenyl)-2-propenoyl]aminobutyl]-4-benzhydroxypiperidine]	
3	O=C(/C=C/C=C/c1ccc2c(c1)OCO2)NCCN1CCN(C(c2ccccc2)c2ccccc2)CC1 [Example 61, N-[2-[5-(3,4-methylenedioxyphenyl)-2,4-pentadienoyl]aminoethyl]-N'-benzhydrylpiperazine]	
7	COc1cc(/C=C/C(=O)N2CCN(CCCCn3cnc4c3c(=O)n(C)c(=O)n4C)CC2)cc(OC)c1O [Example 125, 7-[4-[4-{3-(3,5-dimethoxy-4-hydroxyphenyl)-2-propenoyl}piperazi-1-nyl]butyl]theophylline]	
0.01	CC(OCCN1CCN(C(=O)/C=C/C=C/c2ccc(O)c(O)c2)CC1)(c1ccccc1)c1ccc(Cl)cc1 (centres unmarked) [Example 107, N-[5-(3,4-dihydroxyphenyl)-2,4-pentadienoyl]-N-[2-[1-phenyl-1-(p-chlorophenyl)-ethoxy]ethyl]piperazine]	

IC50 [1] [µM]	SMILES	IC50 [µM]
0.4	COc1cc(/C=C/C(=O)NCCN2CCC(OC(c3ccccc3)c3ccccc3)CC2)ccc1O [Example 116, 1-[2-[3-(3-methoxy-4-hydroxyphenyl)-2-propenoyl]aminoethyl]-4-benzhydroxypiperidine]	
0.6	COc1cc(/C=C/C(=O)NCCN2CCN(C(c3ccccc3)c3ccccc3)CC2)ccc1O [Example 2, N-benzhydryl-N'-[2-{3-(3-methoxy-4-β-hydroxyphenyl)-2-propenoyl}aminoethyl]piperazine]	
0.05	O=C(/C=C/c1ccc(O)c(O)c1)NCCCCN1CCN(C(c2ccccc2)c2ccc(Cl)cc2)CC1 (centres unmarked) [Example 63]	
0.3	COc1cc(/C=C/C=C/C(=O)NCCCCNC(=O)c2ccccc2N)ccc1O [Example 43, N-5-(3-methoxy-4-hydroxy)phenyl-2,4-pentadienoyl-N'-(2-amino)-benzoyl putrescine]	
0.06	CC/C=C\C/C=C\C/C=C\C/C=C\C/C=C\C/C=C\CCC(=O)NCCCCNC(=O)/C=C/c1ccc(O)c(O)c1 [Example 6, N-[3-(3,4-dihydroxyphenyl)-2-propenoyl]-N'-[4,7,10,13,16,19-docosahexaenoyl]1,4-diaminobutane]	
0.3	COc1cc(/C=C/C(=O)NCCCN2CCN(C(c3ccccc3)c3ccccc3)CC2)ccc1O [Example 34]	
0.1	O=C(/C=C/c1ccc(O)c(O)c1)N1CCN(C(c2ccccc2)c2ccccc2)CC1 [Example 8, N-benzhydryl-N'-{(3,4-dihydroxyphenyl)-2-propenoyl}-piperazine]	
0.009	COc1cc(/C=C/C=C/C(=O)NCCN2CCC(OC(c3ccccc3)c3ccccc3)CC2)ccc1O [Example 119, 1-[2-[5-(3-methoxy-4-hydroxyphenyl)-2,4-pentadienoyl]aminoethyl]4-benzhydroxypiperidine]	
1	COc1cc(/C=C/C=C/C(=O)N2CCN(CCCCn3cnc4c3c(=O)n(C)c(=O)n4C)CC2)ccc1O [Example 130]	
200	COc1cc(/C=C/C(=O)NCCN2CCN(C(=O)c3ccccc3N)CC2)ccc1O [Example 36, N-(o-aminobenzoyl)-N'-[2-[3-[3-methoxy-4-hydroxyphenyl)-2-propenoyl]aminoethyl]piperazine]	
0.08	Cc1ccc(C(=O)OCc2cnc(C)c(O)c2CNC(=O)/C=C/C=C/c2ccc(O)c(O)c2)cc1 [Example 46]	
8	COc1ccc(/C=C/C(=O)NCCCCN2CCN(C(c3ccccc3)c3ccccc3)CC2)cc1OC [Example 74, N-[4-[3-(3,4-dimethoxyphenyl)-2-propenoyl]aminobutyl]-N'-benzhydrylpiperazine]	
0.04	O=C(/C=C/C=C/c1ccc(O)c(O)c1)N1CCN(C(c2ccccc2)c2ccccc2)CC1 [Example 26]	
10	COc1ccc(/C=C/C(=O)NCCOC(c2ccccc2)c2ccccc2)cc1OC [Example 77, 2-[3-(3,4-dimethoxyphenyl)-2-propenoyl]aminoethyl benzhydryl ether]	
0.03	O=C(/C=C/c1ccc(O)c(O)c1)Nc1cc(Cl)ccc1O [Example 10, N-{3-(3,4-dihydroxyphenyl)-2-propenoyl}-5-chloro-2-hydroxyaniline]	
1	COc1cc(/C=C/C=C/C(=O)N2CCN(CCCCn3cnc4c3c(=O)n(C)c(=O)n4C)CC2)cc(OC)c1O [Example 132]	
